# Earlier results as cited in US20080226713A1, “Controlled Release Pharmaceutical Compositions of Tolperisone for Oral Administration” (priority 2004, published 2008).
# Where two headings read alike, the source gives them in different places.
# How the values were obtained:
# [1] = JP-A-53-40779
# [2] = rat
SMILES,pharmacological effect ([1]; listed as R-tolperisone),extent of in-vivo inversion into the other enantiomer [2],pharmacological effect ([1]; listed as S-tolperisone)
Cc1ccc(C(=O)C(C)CN2CCCCC2)cc1 (stereo not drawn) [R(−)tolperisone],muscle-relaxing effect,,
Cc1ccc(C(=O)C(C)CN2CCCCC2)cc1 (stereo not drawn) [S(+)tolperisone],,up to 20%,vaso- or bronchodilatory effect
